Source: ChEMBL document CHEMBL4819051, “Synthesis and antifungal activity of new hybrids thiazolo[4,5-d]pyrimidines with (1H-1,2,4)triazole” (Bioorg Med Chem Lett, 2021)
Values after ≈ are worked out from the molar mass of the structure shown.

Experiments:
[1] = 1-octanol/aqueous buffer distribution coefficient, logP of the compound at pH 7.4; type: physicochemical
Candida parapsilosis [2] = test: Antifungal activity against Candida parapsilosis ATCC 22019 assessed as reduction in fungal growth incubated for 24 hrs by CLSI based serial microbroth dilution method; type: functional; settings: Lodderomyces parapsilosis
Candida parapsilosis [3] = test: Antifungal activity against Candida parapsilosis ATCC 22019 assessed as reduction in fungal growth incubated for 48 hrs by CLSI based serial microbroth dilution method; type: functional; settings: Lodderomyces parapsilosis
Candida albicans [4] = test: Antifungal activity against Candida albicans ATCC 24433 assessed as reduction in fungal growth incubated for 24 hrs by CLSI based serial microbroth dilution method; type: functional
Candida albicans [5] = test: Antifungal activity against Candida albicans ATCC 24433 assessed as reduction in fungal growth incubated for 48 hrs by CLSI based serial microbroth dilution method; type: functional
Candida albicans [6] = test: Antifungal activity against Candida albicans 8R assessed as reduction in fungal growth incubated for 24 hrs by CLSI based serial microbroth dilution method; type: functional
Candida albicans [7] = test: Antifungal activity against Candida albicans 8R assessed as reduction in fungal growth incubated for 48 hrs by CLSI based serial microbroth dilution method; type: functional
Candida albicans [8] = test: Antifungal activity against Candida albicans CBS 8837 assessed as reduction in fungal growth incubated for 24 hrs by CLSI based serial microbroth dilution method; type: functional
Candida albicans [9] = test: Antifungal activity against Candida albicans CBS 8837 assessed as reduction in fungal growth incubated for 48 hrs by CLSI based serial microbroth dilution method; type: functional
Candida albicans [10] = test: Antifungal activity against Candida albicans 604M assessed as reduction in fungal growth incubated for 24 hrs by CLSI based serial microbroth dilution method; type: functional
Candida albicans [11] = test: Antifungal activity against Candida albicans 604M assessed as reduction in fungal growth incubated for 48 hrs by CLSI based serial microbroth dilution method; type: functional
Candida tropicalis [12] = test: Antifungal activity against Candida tropicalis 3019 assessed as reduction in fungal growth incubated for 24 hrs by CLSI based serial microbroth dilution method; type: functional
Candida tropicalis [13] = test: Antifungal activity against Candida tropicalis 3019 assessed as reduction in fungal growth incubated for 48 hrs by CLSI based serial microbroth dilution method; type: functional
Pichia kudriavzevii [14] = test: Antifungal activity against Candida krusei 432M assessed as reduction in fungal growth incubated for 24 hrs by CLSI based serial microbroth dilution method; type: functional
Pichia kudriavzevii [15] = test: Antifungal activity against Candida krusei 432M assessed as reduction in fungal growth incubated for 48 hrs by CLSI based serial microbroth dilution method; type: functional
Cryptococcus neoformans [16] = test: Antifungal activity against Cryptococcus neoformans assessed as reduction in fungal growth incubated for 24 hrs by CLSI based serial microbroth dilution method; type: functional
Cryptococcus neoformans [17] = test: Antifungal activity against Cryptococcus neoformans assessed as reduction in fungal growth incubated for 48 hrs by CLSI based serial microbroth dilution method; type: functional
Aspergillus niger [18] = test: Antifungal activity against Aspergillus niger 37a assessed as reduction in fungal growth incubated for 24 hrs by CLSI based serial microbroth dilution method; type: functional
Aspergillus niger [19] = test: Antifungal activity against Aspergillus niger 37a assessed as reduction in fungal growth incubated for 48 hrs by CLSI based serial microbroth dilution method; type: functional
Microsporum canis [20] = test: Antifungal activity against Microsporum canis B-200 assessed as reduction in fungal growth incubated for 24 hrs by CLSI based serial microbroth dilution method; type: functional
Microsporum canis [21] = test: Antifungal activity against Microsporum canis B-200 assessed as reduction in fungal growth incubated for 48 hrs by CLSI based serial microbroth dilution method; type: functional
Cyberlindnera jadinii [22] = test: Antifungal activity against Candida utilis 84 assessed as reduction in fungal growth incubated for 24 hrs by CLSI based serial microbroth dilution method; type: functional; settings: Williopsis jadinii
Cyberlindnera jadinii [23] = test: Antifungal activity against Candida utilis 84 assessed as reduction in fungal growth incubated for 48 hrs by CLSI based serial microbroth dilution method; type: functional; settings: Williopsis jadinii
Trichophyton rubrum [24] = test: Antifungal activity against Trichophyton rubrum 2002 assessed as reduction in fungal growth incubated for 24 hrs by CLSI based serial microbroth dilution method; type: functional
Trichophyton rubrum [25] = test: Antifungal activity against Trichophyton rubrum 2002 assessed as reduction in fungal growth incubated for 48 hrs by CLSI based serial microbroth dilution method; type: functional
Nakaseomyces glabratus [26] = test: Antifungal activity against Candida glabrata 61L assessed as reduction in fungal growth incubated for 24 hrs by CLSI based serial microbroth dilution method; type: functional
Nakaseomyces glabratus [27] = test: Antifungal activity against Candida glabrata 61L assessed as reduction in fungal growth incubated for 48 hrs by CLSI based serial microbroth dilution method; type: functional

Row | SMILES | logD [1] | MIC (Candida parapsilosis [2]) [µg/mL] | MIC (Candida parapsilosis [3]) [µg/mL] | MIC (Candida albicans [4]) [µg/mL] | MIC (Candida albicans [5]) [µg/mL] | MIC (Candida albicans [6]) [µg/mL] | MIC (Candida albicans [7]) [µg/mL] | MIC (Candida albicans [8]) [µg/mL] | MIC (Candida albicans [9]) [µg/mL] | MIC (Candida albicans [10]) [µg/mL] | MIC (Candida albicans [11]) [µg/mL] | MIC (Candida tropicalis [12]) [µg/mL] | MIC (Candida tropicalis [13]) [µg/mL] | MIC (Pichia kudriavzevii [14]) [µg/mL] | MIC (Pichia kudriavzevii [15]) [µg/mL] | MIC (Cryptococcus neoformans [16]) [µg/mL] | MIC (Cryptococcus neoformans [17]) [µg/mL] | MIC (Aspergillus niger [18]) [µg/mL] | MIC (Aspergillus niger [19]) [µg/mL] | MIC (Microsporum canis [20]) [µg/mL] | other results
1 | COc1ccccc1-n1c(=S)sc2c(=O)n(CC(O)(Cn3cncn3)c3ccc(F)cc3F)cnc21 (stereo not drawn) | 1.19 |  |  |  |  |  |  |  |  |  |  |  |  |  |  |  |  |  |  |  | 
2 | Cc1ccc(-n2c(=S)sc3c(=O)n(CCN4CCN(CC(O)(Cn5cncn5)c5ccc(F)cc5F)CC4)cnc32)cc1 (stereo not drawn) | 2.9 | 0.5 (≈ 0.8 µM) | 0.5 (≈ 0.8 µM) | 8 (≈ 12.8 µM) | 16 (≈ 25.6 µM) | 32 (≈ 51.2 µM) | 32 (≈ 51.2 µM) | 16 (≈ 25.6 µM) | 32 (≈ 51.2 µM) | 16 (≈ 25.6 µM) | 32 (≈ 51.2 µM) | 4 (≈ 6.4 µM) | 8 (≈ 12.8 µM) | 16 (≈ 25.6 µM) | 32 (≈ 51.2 µM) | 32 (≈ 51.2 µM) | 32 (≈ 51.2 µM) | 32 (≈ 51.2 µM) | 32 (≈ 51.2 µM) | 32 (≈ 51.2 µM) | MIC (Microsporum canis [21]): 32 µg/mL (≈ 51.2 µM); MIC (Cyberlindnera jadinii [22]): 2 µg/mL (≈ 3.2 µM); MIC (Cyberlindnera jadinii [23]): 4 µg/mL (≈ 6.4 µM); MIC (Trichophyton rubrum [24]): 32 µg/mL (≈ 51.2 µM); MIC (Trichophyton rubrum [25]): 32 µg/mL (≈ 51.2 µM); MIC (Nakaseomyces glabratus [26]): 4 µg/mL (≈ 6.4 µM); MIC (Nakaseomyces glabratus [27]): 32 µg/mL (≈ 51.2 µM)
3 | COc1ccccc1-n1c(=S)sc2c(=O)n(CC(=O)NCC(O)(Cn3cncn3)c3ccc(F)cc3F)cnc21 (stereo not drawn) | 0.8 |  |  |  |  |  |  |  |  |  |  |  |  |  |  |  |  |  |  |  | 
4 | O=c1c2sc(=S)n(-c3ccc(F)cc3)c2ncn1CCCN1CCN(CC(O)(Cn2cncn2)c2ccc(F)cc2F)CC1 (stereo not drawn) |  | 0.06 (≈ 0.0934 µM) | 0.125 (≈ 0.194 µM) | 8 (≈ 12.4 µM) | 8 (≈ 12.4 µM) | 32 (≈ 49.8 µM) | 32 (≈ 49.8 µM) | 16 (≈ 24.9 µM) | 32 (≈ 49.8 µM) | 32 (≈ 49.8 µM) | 32 (≈ 49.8 µM) | 4 (≈ 6.22 µM) | 4 (≈ 6.22 µM) | 8 (≈ 12.4 µM) | 16 (≈ 24.9 µM) | 16 (≈ 24.9 µM) | 16 (≈ 24.9 µM) | 16 (≈ 24.9 µM) | 16 (≈ 24.9 µM) | 4 (≈ 6.22 µM) | MIC (Microsporum canis [21]): 4 µg/mL (≈ 6.22 µM); MIC (Cyberlindnera jadinii [22]): 1 µg/mL (≈ 1.56 µM); MIC (Cyberlindnera jadinii [23]): 1 µg/mL (≈ 1.56 µM); MIC (Trichophyton rubrum [24]): 32 µg/mL (≈ 49.8 µM); MIC (Trichophyton rubrum [25]): 32 µg/mL (≈ 49.8 µM); MIC (Nakaseomyces glabratus [26]): 4 µg/mL (≈ 6.22 µM); MIC (Nakaseomyces glabratus [27]): 32 µg/mL (≈ 49.8 µM)
5 | O=c1c2sc(=S)n(-c3ccc(F)cc3)c2ncn1CCN1CCN(CC(O)(Cn2cncn2)c2ccc(F)cc2F)CC1 (stereo not drawn) |  | 0.5 (≈ 0.795 µM) | 1 (≈ 1.59 µM) | 8 (≈ 12.7 µM) | 8 (≈ 12.7 µM) | 32 (≈ 50.9 µM) | 32 (≈ 50.9 µM) | 32 (≈ 50.9 µM) | 32 (≈ 50.9 µM) | 32 (≈ 50.9 µM) | 32 (≈ 50.9 µM) | 32 (≈ 50.9 µM) | 32 (≈ 50.9 µM) | 32 (≈ 50.9 µM) | 32 (≈ 50.9 µM) | 32 (≈ 50.9 µM) | 32 (≈ 50.9 µM) | 32 (≈ 50.9 µM) | 32 (≈ 50.9 µM) | 32 (≈ 50.9 µM) | MIC (Microsporum canis [21]): 32 µg/mL (≈ 50.9 µM); MIC (Cyberlindnera jadinii [22]): 32 µg/mL (≈ 50.9 µM); MIC (Cyberlindnera jadinii [23]): 32 µg/mL (≈ 50.9 µM); MIC (Trichophyton rubrum [24]): 32 µg/mL (≈ 50.9 µM); MIC (Trichophyton rubrum [25]): 32 µg/mL (≈ 50.9 µM); MIC (Nakaseomyces glabratus [26]): 32 µg/mL (≈ 50.9 µM); MIC (Nakaseomyces glabratus [27]): 32 µg/mL (≈ 50.9 µM)
6 | O=C(Cn1cnc2c(sc(=S)n2-c2ccc(Cl)cc2)c1=O)NCC(O)(Cn1cncn1)c1ccc(F)cc1F (stereo not drawn) | 1.16 |  |  |  |  |  |  |  |  |  |  |  |  |  |  |  |  |  |  |  | 
7 | O=c1c2sc(=S)n(-c3ccc(Cl)cc3)c2ncn1CCCN1CCN(CC(O)(Cn2cncn2)c2ccc(F)cc2F)CC1 (stereo not drawn) |  | 0.25 (≈ 0.379 µM) | 0.25 (≈ 0.379 µM) | 16 (≈ 24.3 µM) | 32 (≈ 48.5 µM) | 32 (≈ 48.5 µM) | 32 (≈ 48.5 µM) | 16 (≈ 24.3 µM) | 32 (≈ 48.5 µM) | 32 (≈ 48.5 µM) | 32 (≈ 48.5 µM) | 8 (≈ 12.1 µM) | 8 (≈ 12.1 µM) | 16 (≈ 24.3 µM) | 32 (≈ 48.5 µM) | 32 (≈ 48.5 µM) | 32 (≈ 48.5 µM) | 32 (≈ 48.5 µM) | 32 (≈ 48.5 µM) | 32 (≈ 48.5 µM) | MIC (Microsporum canis [21]): 32 µg/mL (≈ 48.5 µM); MIC (Cyberlindnera jadinii [22]): 2 µg/mL (≈ 3.03 µM); MIC (Cyberlindnera jadinii [23]): 2 µg/mL (≈ 3.03 µM); MIC (Trichophyton rubrum [24]): 16 µg/mL (≈ 24.3 µM); MIC (Trichophyton rubrum [25]): 16 µg/mL (≈ 24.3 µM); MIC (Nakaseomyces glabratus [26]): 2 µg/mL (≈ 3.03 µM); MIC (Nakaseomyces glabratus [27]): 32 µg/mL (≈ 48.5 µM)
